Assay results from patent US10898459B2, “Method of treating chronic kidney disease” (Panion & BF Biotech Inc., priority 2006, dated 2021).

Columns and labels:
[1] = 37° C.; cited from earlier work

Row | Substance | Intrinsic Dissolution Rates (37° C., solution of pH 8) [mg/cm^2/min] | further results
1 | ferric citrate [PAN031203D] | 2.95 | –
2 | ferric citrate [PAN031203E] | 3.13 | –
3 | ferric citrate [PAN031203C] | 2.68 | –
4 | ferric citrate [PAN031203A] | 3.82 | –
5 | ferric citrate [STM-134, reference compound] | 1.88 | Mean Intrinsic Dissolution Rates (37° C., solution of pH 8): 1.88 mg/cm^2/min; Mean Dissolution Rates (Table 2, one value for the pair of samples -1 and -2, listed as STM-134-1): 2.47 mg/cm2/min
6 | ferric citrate [PAN031203B] | 4.00 | –
7 | ferric citrate [crystalline ferric citrate] | – | rate of dissolution (time) [1]: 10 to 12 h
